Measured values taken from patent US12558399B2, “Isocyclosporin A for topical treatment of ocular diseases” (DOMPE' FARMACEUTICI S.P.A., priority 2021, dated 2026).

Experiments:
TRPV3 = biological target: T1, TRPV3 (Homo sapiens, UniProt Q8NET8); assay: FLIPR assay, TRPV3 inhibition; type: cell-based
T1 sequence (Q8NET8 1-790): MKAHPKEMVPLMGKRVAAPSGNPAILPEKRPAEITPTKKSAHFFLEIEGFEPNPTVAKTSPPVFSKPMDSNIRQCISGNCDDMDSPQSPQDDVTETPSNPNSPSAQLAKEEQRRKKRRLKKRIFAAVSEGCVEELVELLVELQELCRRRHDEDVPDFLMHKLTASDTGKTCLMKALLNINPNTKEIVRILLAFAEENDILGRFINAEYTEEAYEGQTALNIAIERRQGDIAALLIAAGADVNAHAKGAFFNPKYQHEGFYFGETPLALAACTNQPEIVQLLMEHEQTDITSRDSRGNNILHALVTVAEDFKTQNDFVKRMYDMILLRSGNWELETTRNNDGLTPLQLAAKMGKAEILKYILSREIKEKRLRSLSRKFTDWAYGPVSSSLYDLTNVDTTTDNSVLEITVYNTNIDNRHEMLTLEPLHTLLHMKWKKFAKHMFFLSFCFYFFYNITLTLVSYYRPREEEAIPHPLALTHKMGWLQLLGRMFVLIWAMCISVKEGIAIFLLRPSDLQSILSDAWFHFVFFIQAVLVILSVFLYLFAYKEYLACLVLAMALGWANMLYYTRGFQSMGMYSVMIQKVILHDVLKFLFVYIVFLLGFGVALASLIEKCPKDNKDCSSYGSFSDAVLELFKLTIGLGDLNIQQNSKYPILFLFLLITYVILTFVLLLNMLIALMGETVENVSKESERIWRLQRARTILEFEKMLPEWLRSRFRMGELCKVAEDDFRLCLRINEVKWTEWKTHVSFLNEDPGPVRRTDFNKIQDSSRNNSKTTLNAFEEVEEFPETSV
Source text: The FLIPR assay is used to screen ion channel targets using membrane permeable fluorescent dyes. In particular, ion channel targets with significant Ca permeability, produce an increase in intracellular calcium that can be measured using calcium-sensitive dyes (Michelle R. Arkin et al. FLIPR™ Assays for GPCR and Ion Channel Targets. Assay Guidance Manual [Internet]. Bethesda (MD): Eli Lilly & Company and the National Center for Advancing Translational Sciences; 2004).
(§1) TRPV3 is an ionic channel that plays an important role in itching and inflammation, which are two characterizing aspects of ocular surface diseases such as VKC and AKC.
(§2) In details, human TRP cells are trypsinized, counted and seeded in black, clear-bottomed 96 well plates at a density of 50,000 cells per well and incubated overnight. Next day, media is removed from cell plates and 25 μl assay buffer is added. Red membrane potential or Calcium 5 dye solution (10 μl) is added to the wells and incubated at 37° C. for 1 hour. TRPV3, TRPML2 and TRPC4 are tested using the membrane potential dye.
(§3) Dye solution is made up in assay buffer. Compound dilutions are performed in 100% DMSO or dH2O then transferred to intermediate dilutions (5% DMSO/assay buffer or 5% dH2O/assay buffer) for a short time (<10 minutes) just before adding to the cell plate.
The plates are placed in the FLIPR and fluorescence monitored every 1.52 seconds. After 20 seconds 10 μl of the appropriate standard agonist is added and the fluorescence monitored for 5 minutes at ex/em: 488 nm/510-570 nm.
Reference agonists and antagonists have been tested against each channel to check that the value is within the acceptable range in order to validate the assays.
Percentage activation and inhibition values of the test compound and reference compounds has been evaluated.

TRPML2 = biological target: T2, TRPML2 (Homo sapiens, UniProt Q8IZK6); assay: FLIPR assay, TRPML2 inhibition; type: cell-based
T2 sequence (Q8IZK6 1-566): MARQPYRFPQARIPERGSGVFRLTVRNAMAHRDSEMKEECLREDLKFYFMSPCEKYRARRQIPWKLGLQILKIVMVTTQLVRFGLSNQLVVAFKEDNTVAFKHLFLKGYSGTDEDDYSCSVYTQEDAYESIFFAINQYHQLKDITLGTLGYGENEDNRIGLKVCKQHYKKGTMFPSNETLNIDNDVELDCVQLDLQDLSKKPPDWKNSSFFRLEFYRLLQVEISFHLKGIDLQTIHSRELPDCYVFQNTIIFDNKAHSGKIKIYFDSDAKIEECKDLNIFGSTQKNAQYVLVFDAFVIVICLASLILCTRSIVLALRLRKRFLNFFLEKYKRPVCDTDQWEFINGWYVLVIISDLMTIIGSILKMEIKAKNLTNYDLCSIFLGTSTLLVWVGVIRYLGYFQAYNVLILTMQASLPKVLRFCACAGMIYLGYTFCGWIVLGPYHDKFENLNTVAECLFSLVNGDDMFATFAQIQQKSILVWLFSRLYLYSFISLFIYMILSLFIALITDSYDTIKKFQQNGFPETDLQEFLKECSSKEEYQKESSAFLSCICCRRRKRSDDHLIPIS
Protocol: The FLIPR assay is used to screen ion channel targets using membrane permeable fluorescent dyes. […]
as §2, §3

TRPC4 = biological target: T3, TRPC4 (Homo sapiens, UniProt Q9UBN4); assay: FLIPR assay, TRPC4 activation; type: cell-based; details: 30 μM
T3 sequence (Q9UBN4 1-977): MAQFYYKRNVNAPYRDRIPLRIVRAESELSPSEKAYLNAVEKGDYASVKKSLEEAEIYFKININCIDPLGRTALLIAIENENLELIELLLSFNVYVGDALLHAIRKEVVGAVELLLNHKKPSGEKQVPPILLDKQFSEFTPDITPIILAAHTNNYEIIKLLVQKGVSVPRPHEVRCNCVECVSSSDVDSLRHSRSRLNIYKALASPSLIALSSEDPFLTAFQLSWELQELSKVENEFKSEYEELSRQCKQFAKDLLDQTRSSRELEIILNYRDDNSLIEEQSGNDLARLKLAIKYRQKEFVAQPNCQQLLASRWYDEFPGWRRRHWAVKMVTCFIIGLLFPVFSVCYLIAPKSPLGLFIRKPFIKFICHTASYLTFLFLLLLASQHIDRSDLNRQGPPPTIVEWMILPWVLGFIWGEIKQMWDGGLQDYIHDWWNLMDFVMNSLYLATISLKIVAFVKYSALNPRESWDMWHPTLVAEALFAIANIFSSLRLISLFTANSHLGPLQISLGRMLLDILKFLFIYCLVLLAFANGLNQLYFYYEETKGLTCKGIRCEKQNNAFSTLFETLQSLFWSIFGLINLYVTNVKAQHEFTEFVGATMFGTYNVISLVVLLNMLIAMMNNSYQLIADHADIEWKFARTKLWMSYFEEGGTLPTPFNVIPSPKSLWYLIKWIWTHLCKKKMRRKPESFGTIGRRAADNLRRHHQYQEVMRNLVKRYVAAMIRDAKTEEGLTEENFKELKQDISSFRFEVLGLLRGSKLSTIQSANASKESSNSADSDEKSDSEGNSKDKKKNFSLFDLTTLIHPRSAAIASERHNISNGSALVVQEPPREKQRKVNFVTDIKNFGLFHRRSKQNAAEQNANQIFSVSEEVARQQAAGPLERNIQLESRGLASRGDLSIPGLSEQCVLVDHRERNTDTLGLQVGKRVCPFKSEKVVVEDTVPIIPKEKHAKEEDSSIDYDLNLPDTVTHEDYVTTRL
Protocol: The FLIPR assay is used to screen ion channel targets using membrane permeable fluorescent dyes.
as §1, §2, §3
After 20 seconds IsoCsA, CsA or standard agonist are added to the wells and the fluorescence monitored for 5 minutes at ex./em.

[1] = mouse, in vivo
eye of healthy rabbits = details: rabbit, in vivo
tear secretion = assay: Tear secretion by modified Schirmer test in scopolamine-treated mice; type: in vivo; details: mouse, day 22 and day 25, compared between treated groups
Protocol: In details, 15 mice (N=5 per group) were randomly assigned at baseline to 3 groups and dry eye was induced by treatment with a subcutaneous injection protocol of 0.5 mg/0.2 ml scopolamine hydrobromide, as previously described (Yeh S et al. Invest Ophthalmol Vis Sci, 2003, 44 (1): 124-9). […] In the treatment groups, ten microliters of the test formulations were instilled in each mouse three times a day in both eyes starting at Day 1 after the first scopolamine injection for 25 days. The treatments were encoded, and the group allocation was blinded to the technician administering the treatment, and to the researcher assessing the outcome of the experiment. Group identification was uncovered at the end of the analysis. Tear secretion was also measured in all animals by modified Schirmer test at day 22 and at day 25, as described in Rossi S. et al. Arch Ital Biol. 2012 March; 150 (1): 15-21.

[2] = 56 μM, reference agonist, considered equal to 0%
[3] = 2 μM, agonist, considered equal to 0%

Compound: NCCOB(c1ccccc1)c1ccccc1 [2-APB, 2-aminoetoxy diphenyl borate]
- TRPV3 Inhibition % Mean (TRPV3; [2]): 0%
- TRPV3 Inhibition % n = 1 (TRPV3; [2]): 0%
- TRPV3 Inhibition % n = 2 (TRPV3; [2]): 0%

Compound: [Ca+2].[Cl-].[Cl-] [CaCl2]
- TRPML2 Inhibition % Mean (TRPML2; [3]): 0%
- TRPML2 Inhibition % n = 1 (TRPML2; [3]): 0%
- TRPML2 Inhibition % n = 2 (TRPML2; [3]): 0%

Compound: [Gd+3] [Gd3, Gadolinium]
- TRPML2 Inhibition % Mean (TRPML2; 4 mM, antagonist): 89.6%
- TRPML2 Inhibition % n = 1 (TRPML2; 4 mM, antagonist): 88.2%
- TRPML2 Inhibition % n = 2 (TRPML2; 4 mM, antagonist): 90.9%

Compound: N.N.N.N.N.N.N.N.N.N.N.N.N.N.[Cl-].[Cl-].[Cl-].[Cl-].[Cl-].[Cl-].[O-2].[O-2].[Ru+3].[Ru+3].[Ru+4] [RR, ruthenium red]
- TRPV3 Inhibition % Mean (TRPV3; 100 μM, reference antagonist): 91.7%
- TRPV3 Inhibition % n = 1 (TRPV3; 100 μM, reference antagonist): 90.2%
- TRPV3 Inhibition % n = 2 (TRPV3; 100 μM, reference antagonist): 93.2%

Compound: isocyclosporin A
- TRPML2 Inhibition % Mean (TRPML2; 30 μM): 71.2%
- TRPML2 Inhibition % n = 1 (TRPML2; 30 μM): 63.9%
- TRPML2 Inhibition % n = 2 (TRPML2; 30 μM): 78.5%
- ability to antagonize TRPML2 in comparison with cyclosporin A (TRPML2; 30 μM): more than double
- effect on activation of TRPC4 (TRPC4): does not have any effect on activation of this channel
- mean level in Conjunctiva [1]: 20 ± 7 ng/mg
- mean level in Cornea [1]: 15 ± 5 ng/mg
- mean level in Intraocular tissues (combined) [1]: 2 ± 1 ng/mg
- variability of tissue levels within different animals with the same treatment [1]: significantly lower variability
- TRPV3 Inhibition % Mean (TRPV3; 30 μM): 60.1%
- TRPV3 Inhibition % n = 1 (TRPV3; 30 μM): 63.7%
- TRPV3 Inhibition % n = 2 (TRPV3; 30 μM): 56.5%
- ability to antagonize TRPV3 relative to cyclosporin A (TRPV3; 30 μM): more than 4 fold
- frequency of the winking (eye of healthy rabbits): 5±1
- tear secretion (tear secretion): significantly higher levels
